Legend:
Format in all cases: cell-based
[1] = tested on: human fibrosarcoma cells HT-1080; test: Anti-fibrosis activity test: inhibition of proliferation of human fibrosarcoma cells HT-1080 (CCK-8); details: Homo sapiens, HT-1080, 48 h
Summary of the method: (§1)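 Cells were seeded at 2×10^4 cells/mL and allowed to adhere for 24 h at 37° C, 5% CO2, then exposed to graded compound concentrations in triplicate for 48 h. CCK-8 was added for 2 h, A450 was read, and IC50 was derived from inhibition rate = (1−Ai/Ao)×100%.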

NF-κB = test: Immunological activity test: inhibition of NF-κB activity; details: initial concentration of 30 μM; a/b isomers given as first/second symbol; read-out: IC50 (μM), inhibitory activity against NF-κB
Summary of the method: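 Compounds were first screened for inhibition of NF-κB activity at 30 μM, with parthenolide as the positive control. IC50 values were then determined for the compounds by further analysis of the assay data.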

[2] = tested on: human hepatic stellate cells LX-2; test: Anti-fibrosis activity test: inhibition of proliferation of human hepatic stellate cells LX-2 (CCK-8); details: Homo sapiens, 48 h
Summary of the method: as §1

[3] = tested on: human embryonic lung fibroblast IMR-90; test: Anti-fibrosis activity test: inhibition of proliferation of human embryonic lung fibroblast IMR-90 (CCK-8)
Summary of the method: as §1

[4] = tested on: mouse macrophages (RAW264.7); test: Lipopolysaccharide-induced NO secretion in macrophages (Griess); details: Mus musculus, RAW264.7, 24 h, RAW264.7, LPS 1 μg/ml, a/b isomers given as first/second symbol, read-out: IC50 (μM), inhibition of lipopolysaccharide-induced NO secretion in macrophages
Summary of the method: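 RAW264.7 cells in DMEM with 10% FBS were treated with test compounds at several concentrations, then stimulated with LPS (1 μg/ml) for 24 hours. Nitrite in the supernatant was measured by Griess reaction at 548 nm, and percent inhibition was calculated against blank-medium controls.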

BHK-21 cells = test: Anti-fibrosis activity test: inhibition of BHK-21 cell proliferation (CCK-8); details: Mesocricetus auratus, BHK-21, 48 h
Summary of the method: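 Cells seeded at 2×10^4 cells/mL, allowed to adhere 24 hours, then exposed to graded compound concentrations in triplicate for 48 hours at 37° C, 5% CO2. CCK-8 added for 2 hours, absorbance read at 450 nm; inhibition versus blank control used to derive IC50. Pirfenidone served as positive control.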

[5] = tested on: human lung fibroblasts HFL1; test: Anti-fibrosis activity test: inhibition of proliferation of human lung fibroblasts HFL1 (CCK-8); details: Homo sapiens, HFL1, 48 h
Summary of the method: as §1

[6] = tested on: cardiac fibroblast RAT-iCell-C002; test: Anti-fibrosis activity test: inhibition of proliferation of cardiac fibroblast RAT-iCell-C002 (CCK-8); details: Cardiac fibroblast, 48 h
Summary of the method: as §1

[7] = tested on: human dermal fibroblasts CCC-ESF-1; test: Anti-fibrosis activity test: inhibition of proliferation of human dermal fibroblasts CCC-ESF-1 (CCK-8); details: Fibroblast
Summary of the method: as §1

[8] = human fibrosarcoma cells HT-1080, CCK-8, 48 hours
[9] = human hepatic stellate cells LX-2, CCK-8, 48 hours
[10] = human embryonic lung fibroblast IMR-90, CCK-8, 48 hours
[11] = CCK-8, 48 hours after administration
[12] = human lung fibroblasts HFL1, CCK-8, 48 hours
[13] = cardiac fibroblast RAT-iCell-C002, CCK-8, 48 hours
[14] = human dermal fibroblasts CCC-ESF-1, CCK-8, 48 hours
[15] = Homo sapiens, IMR-90 cells, 48 h, CCK-8
[16] = Homo sapiens, CCC-ESF-1 cells, 48 h, CCK-8

Row | Structure (SMILES) | IC50 [1, 8] [mM] | IC50 (NF-κB) [µM] | IC50 [2, 9] [mM] | IC50 [3, 10] [mM] | IC50 [4] [µM] | IC50 (BHK-21 cells; [11]) [mM] | IC50 [5, 12] [mM] | IC50 [6, 13] [mM] | IC50 [7, 14] [mM] | IC50 ([1]; HT-1080 cells, 48 h, CCK-8) [mM] | IC50 ([2]; LX-2, 48 h, LX-2 cells, CCK-8) [mM] | IC50 [3, 15] [mM] | IC50 (BHK-21 cells; 48 h, CCK-8) [mM] | IC50 ([5]; HFL1 cells, 48 h, CCK-8) [mM] | IC50 ([6]; RAT-iCell-C002 cells, CCK-8) [mM] | IC50 [7, 16] [mM]
1 | CCOC(=O)/C=C/COc1c2c(nc3ccccc13)-c1cccn1C2=O [Compound 661b, ethyl (E)-4-((10-oxo-10H-pyrrolizino[1,2-b]quinolin-9-yl)oxy)but-2-enoate] | 0.05 to 5 | 1 to 10 | 0.05 to 5 | 0.05 to 5 | 1 to 10 | 0.05 to 5 | 0.05 to 5 | 0.05 to 5 | 0.05 to 5 |  |  |  |  |  |  | 
2 | COc1cccc2[nH]c3c(c(=O)c12)C(=O)n1cccc1-3 [Compound 473a, 8-Methoxy-9H-pyrrolizino[1,2-b]quinoline-9,10(4H)-dione] | 0.05 to 5 | 1 to 10 | 0.05 to 5 | 0.05 to 5 | 1 to 10 | 0.05 to 5 | 0.05 to 5 | < 0.05 | 0.05 to 5 |  |  |  |  |  |  | 
3 | O=C1c2c(n(Cc3ccc(F)c(F)c3F)c3ccccc3c2=O)-c2cccn21 [Compound 584a, 4-(2,3,4-Trifluorobenzyl)-9H-pyrrolizino[1,2-b]quinoline-9,10(4H)-dione] | < 0.05 | 0.1 to 1 | 0.05 to 5 | 0.05 to 5 | 1 to 10 | < 0.05 | 0.05 to 5 | 0.05 to 5 | 0.05 to 5 |  |  |  |  |  |  | 
4 | O=C1c2c(n(Cc3ccc(Br)cc3)c3ccccc3c2=O)-c2cccn21 [Compound 594a, 4-(4-Bromobenzyl)-9H-pyrrolizino[1,2-b]quinoline-9,10(4H)-dione] | 0.05 to 5 | 0.1 to 1 | 0.05 to 5 | 0.05 to 5 | 1 to 10 | < 0.05 | 0.05 to 5 | 0.05 to 5 | 0.05 to 5 |  |  |  |  |  |  | 
5 | O=C1c2c(n(Cc3ccc(F)c(F)c3)c3ccccc3c2=O)-c2cccn21 [Compound 601a, 4-(3,4-Difluorobenzyl)-9H-pyrrolizino[1,2-b]quinoline-9,10(4H)-dione] | 0.05 to 5 | 1 to 10 | 0.05 to 5 | 0.05 to 5 | 1 to 10 | 0.05 to 5 | 0.05 to 5 | 0.05 to 5 | 0.05 to 5 |  |  |  |  |  |  | 
6 | N#Cc1cccc2c(=O)c3c([nH]c12)-c1cccn1C3=O [Compound 447a, 9,10-Dioxo-4,10-dihydro-9H-pyrrolizino[1,2-b]quinoline-5-carbonitrile] | < 0.05 | 0.1 to 1 | 0.05 to 5 | 0.05 to 5 | 0.1 to 1 | 0.05 to 5 | 0.05 to 5 | 0.05 to 5 | 0.05 to 5 |  |  |  |  |  |  | 
7 | O=C1c2c(n(Cc3ccccc3)c3ccccc3c2=O)-c2cccn21 [Compound 103a, 4-Benzyl-9H-pyrrolizino[1,2-b]quinoline-9,10(4H)-dione] | 0.05 to 5 | 1 to 10 | 0.05 to 5 | < 0.05 | 0.1 to 1 | 0.05 to 5 | 0.05 to 5 | 0.05 to 5 | 0.05 to 5 |  |  |  |  |  |  | 
8 | N#Cc1cccc2[nH]c3c(c(=O)c12)C(=O)n1cccc1-3 [Compound 476a, 9,10-Dioxo-4,10-dihydro-9H-pyrrolizino[1,2-b]quinoline-8-carbonitrile] | 0.05 to 5 | 10 to 50 | 0.05 to 5 | 0.05 to 5 | 1 to 10 | < 0.05 | 0.05 to 5 | 0.05 to 5 | 0.05 to 5 |  |  |  |  |  |  | 
9 | O=C1c2c(nc3ccc(Br)cc3c2O)-c2cccn21 [Compound 246b, 7-bromo-9-hydroxy-10H-pyrrolizino[1,2-b]quinolin-10-one] | 0.05 to 5 | 1 to 10 | 0.05 to 5 | 0.05 to 5 | 1 to 10 | 0.05 to 5 | 0.05 to 5 | 0.05 to 5 | 0.05 to 5 |  |  |  |  |  |  | 
10 | O=C1c2c(nc3ccccc3c2OCc2cc(F)cc(F)c2)-c2cccn21 [Compound 579b, 9-((3,5-difluorobenzyl)oxy)-10H-pyrrolizino[1,2-b]quinolin-10-one] | 0.05 to 5 | 0.1 to 1 | 0.05 to 5 | 0.05 to 5 | 1 to 10 | 0.05 to 5 | 0.05 to 5 | 0.05 to 5 | 0.05 to 5 |  |  |  |  |  |  | 
11 | O=C(O)c1ccccc1-c1ccc(Cn2c3c(c(=O)c4ccccc42)C(=O)n2cccc2-3)cc1 [Compound 81a, 4′-((9,10-Dioxo-9H-pyrrolizino[1,2-b]quinolin-4(10H)-yl)methyl)-[1,1′-biphenyl]-2-carboxylic acid] | 0.05 to 5 | 1 to 10 | < 0.05 | < 0.05 | 1 to 10 | < 0.05 | 0.05 to 5 | 0.05 to 5 | 0.05 to 5 |  |  |  |  |  |  | 
12 | Cc1cc2n(c1)C(=O)c1[nH]c3ccccc3c(=O)c1-2 [Compound 798a, 2-Methyl-5H-pyrrolizino[2,1-b]quinoline-5,11(6H)-dione] |  | 1 to 10 |  |  | 1 to 10 |  |  |  |  | 0.05 to 5 | 0.05 to 5 | 0.05 to 5 | < 0.05 | 0.05 to 5 | 0.05 to 5 | 0.05 to 5
13 | O=C1c2c(n(Cc3cccc(I)c3)c3ccccc3c2=O)-c2cccn21 [Compound 608a, 4-(3-Iodobenzyl)-9H-pyrrolizino[1,2-b]quinoline-9,10(4H)-dione] | 0.05 to 5 | 1 to 10 | 0.05 to 5 | < 0.05 | 1 to 10 | < 0.05 | 0.05 to 5 | 0.05 to 5 | 0.05 to 5 |  |  |  |  |  |  | 
14 | O=C1c2c(nc3ccccc3c2OCCCN2CCCCC2)-c2cccn21 [Compound 666b, 9-(3-(piperidin-1-yl)propoxy)-10H-pyrrolizino[1,2-b]quinolin-10-one] |  | 1 to 10 |  |  | 1 to 10 |  |  |  |  | 0.05 to 5 | 0.05 to 5 | 0.05 to 5 | 0.05 to 5 | 0.05 to 5 | 0.05 to 5 | 0.05 to 5
15 | O=C(O)c1ccccc1-c1ccc(COc2c3c(nc4ccccc24)-c2cccn2C3=O)cc1 [Compound 81b, 4′-(((10-oxo-10H-pyrrolizino[1,2-b]quinolin-9-yl)oxy)methyl)-[1,1′-biphenyl]-2-carboxylic acid] | 0.05 to 5 | 1 to 10 | < 0.05 | 0.05 to 5 | 1 to 10 | 0.05 to 5 | 0.05 to 5 | 0.05 to 5 | 0.05 to 5 |  |  |  |  |  |  | 
16 | Cc1ccn2c1-c1c([nH]c3ccccc3c1=O)C2=O [Compound 797a, 1-Methyl-5H-pyrrolizino[2,1-b]quinoline-5,11(6H)-dione] |  | 1 to 10 |  |  | 1 to 10 |  |  |  |  | 0.05 to 5 | 0.05 to 5 | 0.05 to 5 | 0.05 to 5 | 0.05 to 5 | 0.05 to 5 | 0.05 to 5
17 | O=C1c2c(nc3ccccc3c2OCc2ccccc2F)-c2cccn21 [Compound 599b, 9-((2-fluorobenzyl)oxy)-10H-pyrrolizino[1,2-b]quinolin-10-one] | 0.05 to 5 | 1 to 10 | 0.05 to 5 | 0.05 to 5 | 1 to 10 | 0.05 to 5 | 0.05 to 5 | 0.05 to 5 | 0.05 to 5 |  |  |  |  |  |  | 
18 | CCOCCCOc1c2c(nc3ccccc13)-c1cccn1C2=O [Compound 672b, 9-(3-ethoxypropoxy)-10H-pyrrolizino[1,2-b]quinolin-10-one] |  | 1 to 10 |  |  | 1 to 10 |  |  |  |  | 0.05 to 5 | 0.05 to 5 | 0.05 to 5 | 0.05 to 5 | 0.05 to 5 | 0.05 to 5 | 0.05 to 5
19 | O=C1c2c([nH]c3ccc(OC(F)(F)F)cc3c2=O)-c2cccn21 [Compound 306a, 7-(Trifluoromethoxy)-9H-pyrrolizino[1,2-b]quinoline-9,10(4H)-dione] | 0.05 to 5 | 1 to 10 | 0.05 to 5 | 0.05 to 5 | 1 to 10 | 0.05 to 5 | 0.05 to 5 | 0.05 to 5 | 0.05 to 5 |  |  |  |  |  |  | 

From US11040028B2, “Penicinotam derivative, preparation method and use thereof” (OCEAN UNIVERSITY OF CHINA, priority 2017, dated 2021)
